Results: ChEMBL document CHEMBL4052755, “Phosphonodifluoropyruvate is a mechanism-based inhibitor of phosphonopyruvate decarboxylase from Bacteroides fragilis” (Bioorg Med Chem, 2017)
Activity calls are given as the source filed them. The rule behind the calls is not given here.

Columns and labels:
[1] = Binding affinity to recombinant Bacteroides fragilis phosphonopyruvate decarboxylase using phosphonopyruvate as substrate
[2] = tested on: Bacteroides fragilis; experiment: Inhibition of recombinant Bacteroides fragilis phosphonopyruvate decarboxylase at 35 uM incubated for 3 mins by CD spectropolarimetric analysis
[3] = tested on: Bacteroides fragilis; experiment: Irreversible inhibition of recombinant Bacteroides fragilis phosphonopyruvate decarboxylase at 10 uM using phosphonopyruvate as substrate after overnight dialysis
[4] = tested on: Bacteroides fragilis; experiment: Inhibition of recombinant Bacteroides fragilis phosphonopyruvate decarboxylase at 35 uM incubated for 3 mins by UV-Vis spectrophotometric analysis
[5] = tested on: Bacteroides fragilis; experiment: Inhibition of recombinant Bacteroides fragilis phosphonopyruvate decarboxylase assessed as fluoride ion release up to 75 uM incubated for 30 mins by TISAB 2 solution based ion-selective electrode assay
[6] = tested on: Saccharomyces cerevisiae; experiment: Inhibition of yeast alcohol dehydrogenase
[7] = tested on: Pseudomonas putida; experiment: Inhibition of recombinant Pseudomonas putida C-terminal His-tagged phosphonatase
[8] = tested on: Bacteroides fragilis; experiment: Irreversible inhibition of recombinant Bacteroides fragilis phosphonopyruvate decarboxylase at 10 to 50 uM using phosphonopyruvate as substrate

What does the source list for `O=C(O)C(O)(O)C(F)(F)P(=O)(O)O`?
Ki [1]: 600 nM; inhibition [2]: Active; inhibition [3]: Active; inhibition [4]: Active; inhibition [5]: Active; inhibition [6]: inactive; inhibition [7]: inactive; TDI [8]: Active
